Source: EP0877022A1, “Synthesis of the sulfonylpyrimidine derivatives with anticancer activity” (Herbos d.d., priority 1997, dated 1998)
Read-outs that look alike come from different tables or passages of the source.

Experiments:
Type in all cases: cell-based
[1] = test system: human cervix carcinoma (HeLa); experiment: Growth inhibitory effects on HeLa cells (MTT staining); settings: concentration 10^-5 M, read-out: inhibition of cell growth
Protocol: (§1) Cell lines. Human tumor pancreatic carcinoma cells (MiaPaCa 2), laryngeal carcinoma (Hep 2), human cervical carcinoma (HeLa) and normal human fibroblasts (Hef 2) were grown as monolayers at 37 °C in a humidified atmosphere with 5% CO2 in DMEM supplemented with 10% fetal calf serum, 2 mM glutamine, 100 U/ml penicillin and […] streptomycin.
(§2) Cell Cytotoxicity. To the purpos of the experiments the cells ([…]; 2x10^4 cells/ml) were plated onto 96-microwell plates. After 24 hours, test compounds at different concentrations (10^-4-10^-8 M), were added to the cells. Three days later, cell viability was determined by […]. The control cells were grown under same conditions without addition of test compounds. […] This method depends on the conversion of a water-soluble tetrazolium salt (MTT) to a purple colored formazan precipitate. The reaction affected by dehydrogenase enzymes active only in living cells. Tests were carried out in 96-well microculture plates. 10^4 viable tumor cells per well at 4 h incubation time 20 µg MTT7100 µl total medium volume. Formazan crystals were dissolved in DMSO and the plates were immediately measured on a microculture plate reader at 540 nm.

[2] = test system: laryngeal carcinoma (Hep 2); experiment: Growth inhibitory effects on Hep 2 cells (MTT staining); settings: Homo sapiens, concentration 10^-5 M, read-out: inhibition of cell growth
Protocol: as §1, §2

[3] = test system: human tumor pancreatic carcinoma (MiaPaCa 2); experiment: Growth inhibitory effects on MiaPaCa 2 cells (MTT staining); settings: MIA PaCa-2, concentration 10^-5 M, read-out: inhibition of cell growth
Protocol: as §1, §2

[4] = test system: normal human fibroblasts (Hef 2); experiment: Growth inhibitory effects on normal Hef 2 fibroblasts (MTT staining); settings: Fibroblast, Hef 2 normal cells, concentration 10^-5 M, read-out: inhibition of cell growth
Protocol: as §1, §2

## Cc1ccc(S(=O)(=O)n2cc(Br)c(=O)[nH]c2=O)cc1 [compound 2]
[1]
  inhibition at 10 µM: 85%
[2]; Hep 2
  inhibition at 10 µM: 20%
[3]
  inhibition at 10 µM: 80%

## Cc1ccc(S(=O)(=O)n2ccc(N)nc2=O)cc1 [compound 4]
[1]
  inhibition at 10 µM: 85%
[2]; HEp-2, Hep 2
  inhibition at 10 µM: 20%
[3]
  inhibition at 10 µM: 65%
[4]
  inhibition at 10 µM: 20%
